# Experimental data published in US11883526B2 (priority 2019, dated 2024).
# Columns and labels:
# adult subjects with TRD [1] = system: adult subjects with TRD
# Method: Blood pressure and pulse/heart rate measurements were assessed supine with a completely automated device. Manual techniques were used only if an automated device is not available. Blood pressure and pulse/heart rate measurements were preceded by at least 5 minutes of rest in a quiet setting without distractions (e.g., television, cell phones).
# Descriptive statistics of temperature, pulse/heart rate, respiratory rate, pulse oximetry, and blood pressure (systolic and diastolic) (supine) values and changes from baseline were summarized at each scheduled time point. The percentage of subjects with values beyond clinically important limits were summarized.
# [2] = system: subjects with MDD at imminent risk for suicide; assay: MADRS total score, sustained response ([…]2001); assay type: in vivo, human; conditions: 84 mg; for MADRS total score change from baseline, Diff. of LS Means (minus Placebo): ANCOVA LOCF
# Excerpt: Primary efficacy variable/Primary Time point: Change from baseline (Day 1, predose) to Day 1, 4-hours postdose in MADRS total score. The MADRS consists of 10 items that cover all of the core depressive symptoms, with each item scoring from 0 (item is not present or is normal) to 6 (severe or continuous presence of the symptom). A higher score represents a more severe condition.
# The primary efficacy endpoint is the change in MADRS total score from baseline to Day 1: 4-hours postdose. MADRS total scores range from 0 to 60. […] As this is a phase 2a proof-of-concept study, statistical significance is based on a two-sided alpha level of 0.20. All p-values presented in this document are two-sided.
# Sustained response is defined as at least 50% reduction from baseline in MADRS total score with onset on Day 1: 4 hours postdose that is maintained through the end of the double-blind phase (Day 25). Four subjects in the esketamine 84 mg group and 2 subjects in the placebo group had sustained response throughout the double-blind phase.
# subjects with TRD [3] = conditions: human, in vivo, other: intranasal
# Method: (§1) The Clinician Administered Dissociative States Scale (CADSS) was measured prior to the start of each dose, at 40 minutes, and 1.5 hours postdose.
# [4] = system: subjects with MDD at imminent risk for suicide; conditions: 84 mg
# Method: The CADSS was measured prior to the start of each dose, at 40 minutes, 2 hours, and 4 hours postdose.
# [5] = system: patients with treatment-resistant depression (TRD); assay: GAD-7 (Example 7); assay type: in vivo, human
# Method: Overall illness severity was assessed on the Clinical Global Impression of Severity (CGI-S) scale (Guy, “ECDEU Assessment Manual for Psychopharmacology—Revised (DHEW Publ No ADM 76-338)”, Rockville, Md.: U.S. Department of Health, Education, and Welfare, Public Health Service, Alcohol, Drug Abuse, and Mental Health Administration, NIMH Psychopharmacology Research Branch, Division of Extramural Research Programs; 1976, pp 218-222). Participants assessed their severity of anxiety on the Generalized Anxiety Disorder 7-item (GADS-7) Scale (See, Tables 157 and 158). See, Spitzer, “A brief measure for assessing generalized anxiety disorder—the GAD-7”, Arch. Intern. Med., 2006, 166(10):1092-1097.
# [6] = system: subjects with MDD at imminent risk for suicide; assay: Beck Scale for Suicidal Ideation, BSS ([…]2001); assay type: in vivo, human; conditions: 84 mg; for BSS total score change from baseline, Diff. of LS Means (minus Placebo): ANCOVA LOCF, ITT
# Method: The BSS is a 21-item self-reported instrument to detect and measure the severity of suicidal ideation in adults and adolescents aged 17 years and older. The BSS total score represents the severity of suicide ideation, and it is calculated by summing the ratings of the first 19 items; the total score ranges from 0 to 38, with a higher score representing greater suicide ideation. Increasing scores reflect increases in suicidal risk.
# subjects with TRD [7] = conditions: human, in vivo, other: intranasal; remark: listed apart in the source
# Method: as §1
# [8] = 14-day study, 54 mg/day intranasal
# Method: This study includes a single dose and 14-day repeated dose neurotoxicity studies with intranasally administered esketamine in female rats 12 to 14 weeks of age. These studies were conducted to investigate whether single or repeated intranasal administrations of esketamine induced neurodegenerative changes in the rat brain. The study results were used to estimate an esketamine exposure-based safety margin compared with the maximum dose of esketamine administered intranasally to depressed adult patients in clinical trials.
# Each group of main study animals consisted of 12 female rats. Four satellite animals were added to the esketamine HCl-dosed groups of main study animals for TK purposes. The plasma exposure to esketamine was measured in these animals on the first and the last day of dosing at various time points up to and including 24 hours after the first instillation.
# [9] = system: subjects with MDD at imminent risk for suicide; assay: Beck Hopelessness Scale, BHS ([…]2001); assay type: in vivo, human; conditions: 84 mg, ANCOVA LOCF, ITT
# Excerpt: The BHS is a self-reported measure to assess one's level of negative expectations or pessimism regarding the future. It consists of 20 true-false items that examine the respondent's attitude over the past week by either endorsing a pessimistic statement or denying an optimistic statement. For every statement, each response is assigned a score of 0 or 1. The total BHS score is a sum of item responses and ranges from 0 to 20, with a higher score representing a higher level of hopelessness.
# [10] = Pharmacokinetics assembled from 14 Phase 1 studies (Example 10); conditions: for Terminal t1/2 / AUClast / Cmax / tmax: young adult subjects; for Terminal t1/2: range across studies; for AUClast / Cmax: range of mean values; for tmax: range of median values
# Method: The data herein was assembled from 14 Phase 1 studies; each Phase 1 study was performed similarly to the study outlined in Example 9 in which the PK of esketamine was assessed.
# adult subjects with TRD [11] = conditions: double-blind phase
# Method: The CADSS is an instrument for the measurement of present-state dissociative symptoms, and was administered to assess treatment-emergent dissociative symptoms. The CADSS consists of 23 subjective items, divided into 3 components: Depersonalization (Items 3 to 7, 20, and 23), derealization (Items 1, 2, 8 to 13, 16 to 19, and 21) and amnesia (Items 14, 15, and 22). Participant's responses were coded on a 5-point scale (0=not at all through to 4=extremely).
# as §1
# [12] = system: elderly subjects with TRD; conditions: double-blind phase
# Method: as §1
smiles,measurement,setting,value
"CN[C@]1(c2ccccc2Cl)CCCCC1=O [esketamine, (S)-2-(2-chlorophenyl)-2-(methylamino)cyclohexanone]",maximum mean increase in diastolic BP,adult subjects with TRD [1]; across all dosing days,8.1
same,time blood pressure returned to normal range,adult subjects with TRD [1]; double-blind phase,90 min
same,time of peak of transient blood pressure increase post dose,adult subjects with TRD [1]; double-blind phase,approximately 40 minutes
same,subjects with sustained response throughout the double-blind phase,[2]; ≥50% MADRS reduction from Day 1 4 h through Day 25,Four
same,"MADRS total score change from baseline, Diff. of LS Means (minus Placebo)","[2]; Day 1(DB): 4 H, ITT",−5.3
same,"MADRS total score change from baseline, Diff. of LS Means (minus Placebo)","[2]; Day 2(DB), ITT",−7.2
same,"MADRS total score change from baseline, Diff. of LS Means (minus Placebo)","[2]; End Point(DB), ITT",−4.5
same,Day 25 sustained response (MADRS) No: no. of subjects,[2]; ITT,30
same,"Withdrawn from double-blind phase: Lack of Efficacy, percent of subjects",[2]; all randomized analysis set,(2.8%)
same,"Withdrawn from double-blind phase: Lack of Efficacy, number of subjects","[2]; all randomized analysis set, N = 36",1
same,Day 25 sustained response (MADRS) Yes: no. of subjects,"[2]; at least 50 percent reduction from Day 1 through Day 25, ITT",4
same,dissociative/perceptual change symptoms (CADSS) resolved by,subjects with TRD [3],≤ 1.5 hours post dose
same,dissociative and perceptual change symptoms (CADSS) resolved by,[4],≤ 2 hours post dose
same,"GAD-7 change, LS mean difference from placebo (SE)","[5]; Period 1, 28 mg",−0.21 (1.461)
same,"GAD-7 change, LS mean difference from placebo (SE)","[5]; Period 1, 56 mg",−1.40 (1.478)
same,"GAD-7 change, LS mean difference from placebo (SE)","[5]; Period 2, 56 mg",0.60 (1.033)
same,change in BSS total score vs placebo,"[6]; Day 1 4-hours postdose, Day 2 (DB), End Point (DB)",no statistically significant differences
same,"BSS total score change from baseline, Diff. of LS Means (minus Placebo)",[6]; Day 1(DB): 4 H,−2.3
same,"BSS total score change from baseline, Diff. of LS Means (minus Placebo)",[6]; Day 2(DB),−1.9
same,"BSS total score change from baseline, Diff. of LS Means (minus Placebo)",[6]; End Point(DB),−1.7
same,dissociative and perceptual change symptoms (CADSS) resolved by,subjects with TRD [7],≤ 1.5 hours post dose
same,AUC-based safety margin compared with the maximum 84 mg clinical dose,[8],~11 fold
same,Cmax-based safety margin compared with the maximum 84 mg clinical dose,[8],approximately 17 fold
same,"BHS total score change from baseline, Diff. of LS Means (minus Placebo)",[9]; Day 1(DB): 4 H,−1.5
same,"BHS total score change from baseline, Diff. of LS Means (minus Placebo)",[9]; End Point(DB),−2.3
same,mean terminal t1/2,[10]; nasal administration,7 to 12 h
same,Terminal t1/2,[10]; single dose nasal spray 28 mg,7.25 to 16.5 h
same,AUClast,[10]; single dose nasal spray 28 mg,128 to 183 ng·h/mL
same,Cmax,[10]; single dose nasal spray 28 mg,49.7 to 70.5 ng/mL
same,tmax,[10]; single dose nasal spray 28 mg,0.33 to 0.67 h
same,Terminal t1/2,[10]; single dose nasal spray 56 mg,6.8 to 9.83 h
same,AUClast,[10]; single dose nasal spray 56 mg,216 to 317 ng·h/mL
same,Cmax,[10]; single dose nasal spray 56 mg,71.8 to 117 ng/mL
same,tmax,[10]; single dose nasal spray 56 mg,0.50 to 0.77 h
same,Terminal t1/2,[10]; single dose nasal spray 84 mg,6.6 to 12.0 h
same,AUClast,[10]; single dose nasal spray 84 mg,310 to 489 ng·h/mL
same,Cmax,[10]; single dose nasal spray 84 mg,95.0 to 164 ng/mL
same,tmax,[10]; single dose nasal spray 84 mg,0.53 to 0.83 h
same,dissociative and perceptual change symptoms (CADSS) resolved by,adult subjects with TRD [11],≤ 1.5 hours postdose
same,dissociative and perceptual change symptoms (CADSS) resolved by,[12],≤ 1.5 hours postdose
